Data reported in PubChem BioAssay (NCI).
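All cell lines were grown in 96-well plates and treated with compound for 48 hours. Here, GI50 denotes the concentration required for 50% inhibition of growth. The concentration for full growth arrest is given as TGI.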

Legend:
Assay in all cases: inhibition of tumour cell growth, NCI panel, 48 h
[1] = test system: K-562 leukemia
[2] = test system: UACC-257 melanoma
[3] = test system: DU-145 prostate
[4] = test system: HT29 colon
[5] = test system: SN12C renal
[6] = test system: A549 NSCLC
[7] = test system: CCRF-CEM leukemia
[8] = test system: 786-0 renal
[9] = test system: NCI-H460 lung
[10] = test system: HCT-116 colon
[11] = test system: EKVX NSCLC
[12] = test system: OVCAR-4 ovarian
[13] = test system: RXF 393 renal
[14] = test system: UO-31 renal
[15] = test system: HOP-92 NSCLC
[16] = test system: HCC-2998 colon
[17] = test system: OVCAR-3 ovarian
[18] = test system: SK-MEL-2 melanoma
[19] = test system: M14 melanoma
[20] = test system: UACC-62 melanoma
[21] = test system: CAKI-1 renal
[22] = test system: SF-268 CNS
[23] = test system: SF-539 CNS
[24] = test system: OVCAR-8 ovarian
[25] = test system: PC-3 prostate
[26] = test system: SF-295 CNS
[27] = test system: NCI/ADR-RES ovarian
[28] = test system: HCT-15 colon
[29] = test system: LOX IMVI melanoma
[30] = test system: HS 578T breast
[31] = test system: TK-10 renal
[32] = test system: IGROV1 ovarian
[33] = test system: SK-MEL-28 melanoma
[34] = test system: OVCAR-5 ovarian
[35] = test system: HOP-62 NSCLC
[36] = test system: NCI-H522 lung
[37] = test system: NCI-H23 lung
[38] = test system: NCI-H226 lung
[39] = test system: MDA-MB-231 breast
[40] = test system: U251 CNS
[41] = test system: MDA-MB-435
[42] = test system: SW-620 colon
[43] = test system: RPMI-8226 leukemia
[44] = test system: MCF7 breast
[45] = test system: SK-MEL-5 melanoma
[46] = test system: KM12 colon
[47] = test system: A498 renal
[48] = test system: BT-549 breast
[49] = test system: ACHN renal
[50] = test system: MALME-3M melanoma
[51] = test system: SK-OV-3 ovarian
[52] = test system: MOLT-4 leukemia
[53] = test system: SNB-19 CNS
[54] = test system: COLO 205 colon
[55] = test system: T-47D breast
[56] = test system: SR leukemia
[57] = test system: SNB-75 CNS

COc1ccc(OC)c([N+](=O)[O-])c1-c1nc2sc(C)cn2c1/C=N/N=C(N)N
TGI [1]: 28.7 µM
TGI [2]: 47 µM
TGI [3]: > 100 µM
TGI [4]: 50.1 µM
TGI [5]: 90.1 µM
TGI [6]: > 100 µM
TGI [7]: > 100 µM
TGI [8]: > 100 µM
TGI [9]: > 100 µM
TGI [10]: > 100 µM
TGI [11]: > 100 µM
TGI [12]: 47.3 µM
TGI [13]: 76.1 µM
TGI [14]: > 100 µM
TGI [15]: 47.8 µM
TGI [16]: 60.3 µM
TGI [17]: 85.6 µM
TGI [18]: 60.2 µM
TGI [19]: > 100 µM
TGI [20]: 69.3 µM
TGI [21]: 84.1 µM
TGI [22]: > 100 µM
TGI [23]: > 100 µM
TGI [24]: 76.8 µM
TGI [25]: > 100 µM
TGI [26]: 57.1 µM
TGI [27]: > 100 µM
TGI [28]: > 100 µM
TGI [29]: > 100 µM
TGI [30]: 97.9 µM
TGI [31]: 43.3 µM
TGI [32]: 33 µM
TGI [33]: 43.5 µM
TGI [34]: > 100 µM
TGI [35]: > 100 µM
TGI [36]: 46.5 µM
TGI [37]: 66 µM
TGI [38]: 92.7 µM
TGI [39]: 84.4 µM
TGI [40]: > 100 µM
TGI [41]: 56.7 µM
TGI [42]: > 100 µM
TGI [43]: > 100 µM
TGI [44]: > 100 µM
TGI [45]: 49.9 µM
TGI [46]: 72.9 µM
TGI [47]: 78 µM
TGI [48]: 41.9 µM
TGI [49]: > 100 µM
TGI [50]: 44.3 µM

CCN1CCN(c2nc(NNC(=O)c3cccc(OC)c3)nc(N3CCN(C(c4ccccc4)c4ccccc4)CC3)n2)CC1
GI50 [51]: 2.72 µM
TGI [51]: 7.08 µM
GI50 [1]: 2.79 µM
TGI [1]: > 100 µM
GI50 [2]: 2.18 µM
TGI [2]: 4.99 µM
GI50 [3]: 2.67 µM
TGI [3]: 7.29 µM
GI50 [5]: 1.62 µM
TGI [5]: 3.36 µM
GI50 [6]: 3.05 µM
TGI [6]: > 100 µM
GI50 [7]: 2.6 µM
TGI [7]: > 100 µM
GI50 [8]: 1.84 µM
TGI [8]: 3.58 µM
GI50 [9]: 1.75 µM
TGI [9]: 3.39 µM
GI50 [10]: 1.61 µM
TGI [10]: 3.22 µM
GI50 [11]: 2.46 µM
TGI [11]: 12.3 µM
GI50 [52]: 2.03 µM
TGI [52]: 4.72 µM
GI50 [12]: 2.06 µM
TGI [12]: 5.97 µM
GI50 [13]: 1.63 µM
TGI [13]: 3.1 µM
GI50 [14]: 1.23 µM
TGI [14]: 2.47 µM
GI50 [15]: 1.29 µM
TGI [15]: 3.33 µM
GI50 [16]: 1.96 µM
TGI [16]: 4.33 µM
GI50 [17]: 1.94 µM
TGI [17]: 3.78 µM
GI50 [18]: 2.02 µM
TGI [18]: 4.05 µM
GI50 [19]: 1.67 µM
TGI [19]: 3.31 µM
GI50 [20]: 1.84 µM
TGI [20]: 3.71 µM
GI50 [21]: 1.54 µM
TGI [21]: 3.1 µM
GI50 [22]: 1.95 µM
TGI [22]: 4.2 µM
GI50 [23]: 1.65 µM
TGI [23]: 3 µM
GI50 [25]: 2.24 µM
TGI [25]: 13.4 µM
GI50 [26]: 1.87 µM
TGI [26]: 3.6 µM
GI50 [27]: 2.42 µM
TGI [27]: 7.12 µM
GI50 [53]: 4.63 µM
TGI [53]: 26.3 µM
GI50 [29]: 1.62 µM
TGI [29]: 2.97 µM
GI50 [30]: 1.89 µM
TGI [30]: 4.43 µM
GI50 [31]: 1.78 µM
TGI [31]: 3.55 µM
GI50 [32]: 1.89 µM
TGI [32]: 4.34 µM
GI50 [33]: 1.8 µM
TGI [33]: 3.34 µM
GI50 [54]: 2.22 µM
TGI [54]: 5.55 µM
GI50 [34]: 2.83 µM
TGI [34]: 9.97 µM
GI50 [35]: 5.76 µM
TGI [35]: 23.5 µM
GI50 [55]: 2.27 µM
TGI [55]: 7.18 µM
GI50 [56]: 0.926 µM
TGI [56]: 3.81 µM
GI50 [37]: 1.92 µM
TGI [37]: 5.03 µM
GI50 [38]: 1.69 µM
TGI [38]: 3.76 µM
GI50 [39]: 1.87 µM
TGI [39]: 3.58 µM
GI50 [41]: 1.7 µM
TGI [41]: 3.19 µM
GI50 [42]: 1.75 µM
TGI [42]: 3.45 µM
GI50 [57]: 0.201 µM
TGI [57]: 7.71 µM
GI50 [43]: 1.84 µM
TGI [43]: 4.4 µM
GI50 [45]: 1.64 µM
TGI [45]: 3 µM
GI50 [46]: 2.28 µM
TGI [46]: 5.48 µM
GI50 [47]: 3.73 µM
TGI [47]: 15.3 µM
GI50 [48]: 2.65 µM
TGI [48]: 9.81 µM
GI50 [49]: 1.93 µM
TGI [49]: 3.77 µM
GI50 [50]: 1.52 µM
TGI [50]: 2.94 µM
